Laboratory results as given in patent US10620188B2, “Using impedance-based cell response profiling to identify putative inhibitors for oncogene addicted targets or pathways” (ACEA Biosciences, Inc., priority 2002, dated 2020).
Where two headings read alike, the source gives them in different places.

Assays:
H1993 = test: Impedance-based TCRP of Met addicted H1993 cells (xCelligence); format: cell-based, human; details: H1993; increasing concentrations
Method: Cells were treated with ACEA348 (0-10 uM) for 30 min.
(§4) The cell index (CI) was normalized at time of compound addition.
The time-dependent cell response profiles (TCRP) were monitored prior to and after the compound addition using the xCelligence system (ACEA Biosciences/Roche applied sciences).
The Cell index was normalized against the cell index values at a time point just before compound addition. […] EC50 and IC50 of the Met inhibitor can be derived from the CI versus the corresponding log concentration of the inhibitor.

SK-MEL-28 = test: Impedance-based TCRP of SK-MEL-28, b-Raf (V600E) addicted melanoma cells; format: cell-based, human
Method: (A) The impedance-based time-dependent cellular profiles (TCRPs) of SK-MEL28 in response to b-Raf inhibitor on xCelligence system (Roche/ACEA). […] The cell index (CI) was normalized at time of the compound addition. At the indicated time point of treatment (arrow), increasing concentrations of b-Raf inhibitor (from 0 to 10 uM) were added to the cells and the cell response was monitored. […] (B) EC50 of b-Raf derived from impedance-based TCRP.
as §4
Cell lines. […] The time-dependent cell response profiles (TCRP) were monitored prior to and after the compound addition using the xCelligence system (ACEA Biosciences/Roche applied sciences).
(§5) Kinase inhibitors including b-Raf inhibitors at different concentrations in DMSO were added into wells following the incubation period. The cell status was monitored prior to and after the compound addition using xCelligence system (Roche applied sciences). […] The Cell index was normalized against the cell index values at a time point just before compound addition.

C6 = test: Impedance-based TCRP of PDGFR addicted C6 glioma cells; format: cell-based, rat; details: for TCRP (Cell Index response): increasing concentrations; for IC50: Rattus norvegicus, read-out: IC50 (TCRP)
Method: as §4
Kinase inhibitors including PDGFR inhibitors at different concentrations in DMSO were added into wells following the incubation period. The cell status was monitored prior to and after the compound addition using xCelligence system (Roche applied sciences). […] The Cell index was normalized against the cell index values at a time point just before compound addition.
IC50 of the PDGFR inhibitor can be derived from the CI versus the corresponding log concentration of the inhibitor.

Colo-205 = test: Impedance-based TCRP of Colo-205 cells, b-Raf (V600E); format: cell-based, human; details: increasing concentrations
Method: (A) The impedance-based time-dependent cellular profiles (TCRPs) of colo205 in response to b-Raf inhibitor on xCelligence system (Roche/ACEA). […] The cell index (CI) was normalized at time of the compound addition. At the indicated time point of treatment (arrow), increasing concentrations of b-Raf inhibitor (from 0 to 10 uM) were added to the cells and the cell response was monitored. […] (B) IC50 of b-Raf derived from impedance-based TCRP.
as §4, §5

SH-SY5Y = test: Impedance-based TCRP of SH-SY5Y cells, mutant ALK (F1174L); format: cell-based, human; details: 10 uM
Description: The cell index (CI) was normalized at time of compound addition. […] DMSO was served as solvent control.
The cell index was normalized at time of compound addition. DMSO at the same dose was served as solvent control.
as §4

HCC827 = test: Impedance-based TCRP of HCC827 cells, mutant EGFR (Del E746_A750); format: cell-based; details: HCC827; increasing concentrations
Method: as §4
Kinase inhibitors including EGFR inhibitors at different concentrations in DMSO were added into wells following the incubation period. The cell status was monitored prior to and after the compound addition using xCelligence system (Roche applied sciences). The Cell index was normalized against the cell index values at a time point just before compound addition.

10T1/2 tva-H1047R = test: Impedance-based TCRP of 10T1/2 tva-H1047R cells expressing human p110α (H1047R); format: cell-based, mouse
Method: as §4
A mouse fibroblast 10T1/2 expressing the cell-surface receptor TVA, which is specific for subgroup-A avian retroviruses was used. […] A549 is a human lung cancer cell line expressing wild-type p110α. T47D and BT20 are human breast cancer cell lines expressing mutant p110α (T47D) and p110α (P539R/H1047R), respectively.
(§6) Then the normal growth medium (10% FBS) was exchanged with medium containing 0% FBS. The cells were incubated for additional 5 hours before compound treatment. A PI3K inhibitor (PI103) at different concentrations in DMSO was added into wells following the incubation period. The cell status was monitored prior to and after the compound addition using xCelligence system (Roche applied sciences). […] Cell index of the cells treated with solvent DMSO control was used as baseline. The Cell index was normalized against the cell index values at a time point just before compound addition.

10T1/2 tva = test: Impedance-based TCRP of control cell line 10T1/2 tva; parameters: species or system mouse; details: 10T1/2 tva control cell line; from 0 to 10 uM
Method: as §4, §6

A549 = test: Impedance-based TCRP of A549 cells (wild-type p110α) to PI3K inhibitor; format: cell-based, human; details: A549 expressing wild-type p110α; serum starved 5 hour
Method: (§1) Cells were serum starved for 5 hour. The cell index was normalized at time of compound addition. At the indicated time point of treatment, increasing concentrations of PI103 (0-10 uM) was added to the cells and the cell responses were monitored.
(§2) Cell lines. A mouse fibroblast 10T1/2 expressing the cell-surface receptor TVA, which is specific for subgroup-A avian retroviruses was used. The cells were transformed by infection with human p110α (H1047R)-expressing avian retrovirus and are referred to as 10T1/2 tva-H1047R. A549 is a human lung cancer cell line expressing wild-type p110α. T47D and BT20 are human breast cancer cell lines expressing mutant p110α (T47D) and p110α (P539R/H1047R), respectively.
(§3) To test if the characteristic TCRP is specific to PI3K inhibition, we also test the cell responses in several other cell lines (FIG. 35). […] Such characteristic TCRP could be used for identifying or screening unknown biologically active agents which may act as PI3K inhibitors.

T47D = test: Impedance-based TCRP of T47D cells (mutant p110α) to PI3K inhibitor; format: cell-based; details: Homo sapiens, 10 min
Method: as §1, §2, §3

BT20 = test: Impedance-based TCRP of BT20 cells (p110α P539R/H1047R) to PI3K inhibitor; format: cell-based; details: Homo sapiens, BT-20, 10 min
Method: as §1, §2, §3

AKT phosphorylation = test: Western analysis of PI3K downstream signal in 10T1/2 tva-H1047R and 10T1/2 tva; format: cell-based, mouse; details: 10 uM; treated for 2 hours; serum starved 5 hours
Description: Cells were lysed and subject to Western analyses. […] Equal intensity of GAPDH bands indicated equal protein loading.

RBL-2H3 PDGFRβ = test: Impedance response of engineered RBL-2H3 PDGFRβ cells to PDGF stimulation and PDGFR inhibition; format: cell-based, rat; details: serum starved 2 hour, peak normalized CI response
Method: RBL-2H3 PDGFRβ cells were seeded at 20,000 cells per well of 96-well E-plate (Roche/ACEA). The cells were continuously monitored using the xCelligence system (Roche/ACEA). […] The cell index (CI) was normalized at time of compound addition. Time zero depicts the time point of treatment. […] The cell index (CI) was normalized at time of compound addition. Time zero depicts the time point of treatment.

RBL-2H3 = test: Impedance response of parental RBL-2H3 cells; format: cell-based, rat; details: RBL-2H3 parental
Method: Cell lines. RBL2H3-PDGFR is engineered rat basophilic cell line that expresses exogenous PDGFRβ. RBL2H3 is the parental cell line.
RBL2H3-PDGFR overexpressing PDGFRβ was constructed by Lenti viral transduction of RBL2H3. Both RBL2H3-PDGFR and RBL2H3 cells were seeded at 20,000 cells per well of 96-well E-plate (Roche/ACEA). The cells were continuously monitored using the xCelligence system (Roche/ACEA).
Cells were serum starved for 2 hour, then stimulated by addition of PDGF BB (0-50 ng/ml). […] Plotting the peak normalized CI response versus the corresponding log concentration allows for calculation of the EC50 (1.07 ng.mL) of PDGF acting on PDGFR in the engineered cell line.
This dose-dependent decease in the CI is specific to PDGFR inhibition.

COc1cc2ncnc(Nc3ccc(F)c(Cl)c3)c2cc1OCCCN1CCOCC1 [Gefitinib]
TCRP (Cell Index response) (H1993): None of these inhibitors induced a TCRP similar to PF2341006 | TCRP (Cell Index response) (SK-MEL-28; SK-MEL-28, increasing concentrations): did not affect CI changes that are significantly different from the negative control | TCRP (Cell Index response) (C6; C6): did not affect CI changes that are significantly different from the negative control | TCRP (Cell Index response, cell growth) (Colo-205): did not inhibit Colo205 cell growth | TCRP (Cell Index response) (SH-SY5Y): None trigged a TCRP representative to that trigger by ALK inhibitors

Cc1ccc(NC(=O)c2ccc(CN3CCN(C)CC3)cc2)cc1Nc1nc(-c2cccnc2)cs1 [Masitinib]
TCRP (Cell Index response) (H1993): None of these inhibitors induced a TCRP similar to PF2341006 | TCRP (Cell Index response) (C6; C6): dose-dependent short-term increase (to a various degree) and long-term decrease in Cell Index | IC50 (C6; C6, Long-term (96 hours post compound treatment) CI): 487 nM | TCRP (Cell Index response, cell growth) (HCC827): did not inhibit HCC827 cell growth

Oc1cccc(-c2nc(N3CCOCC3)c3oc4ncccc4c3n2)c1 [PI103]
TCRP (Cell Index response) (10T1/2 tva-H1047R; 10T1/2 tva-H1047R in the presence of siRNA targeting human p110α, within 10 min of compound addition): no sharp decrease | TCRP (Cell Index response) (10T1/2 tva-H1047R; 10T1/2 tva-H1047R, serum starved, from 0 to 10 uM): immediate decrease | IC50 (10T1/2 tva-H1047R; Mus musculus, 5 h, read-out: IC50 (TCRP)): 89 nM | TCRP (Cell Index response) (10T1/2 tva): did not show a clear dose response | TCRP (Cell Index response) (A549): did not show clear dose response | IC50 (T47D): 126 nM | IC50 (BT20): 165 nM | PI3K downstream signal (AKT phosphorylation), Western (AKT phosphorylation): efficiently inhibited

CNC(=O)c1cc(Oc2ccc(NC(=O)Nc3ccc(Cl)c(C(F)(F)F)c3)cc2)ccn1 [sorafenib]
TCRP (Cell Index response) (SK-MEL-28): did not affect CI changes that are significantly different from the negative control | TCRP (Cell Index response) (C6; C6): dose-dependent short-term increase (to a various degree) and long-term decrease in Cell Index | IC50 (C6; C6, 96 h): 190 nM | TCRP (Cell Index response) (SH-SY5Y): None trigged a TCRP representative to that trigger by ALK inhibitors | TCRP (Cell Index response) (10T1/2 tva): cell index decreases in both the control cell line and H1047R cell line

PDGF: PDGF BB, ligand used to stimulate PDGFRβ
EC50 of PDGF acting on PDGFR (RBL-2H3 PDGFRβ): 1.07 ng·mL | Cell Index response of parental cell line (RBL-2H3): did not show any response
